# Biological target: CAHEX:6HIS (Human immunodeficiency virus type 1 group M subtype B, UniProt P12493, A146C/E177C/M317A/W316A)
# Settings: BLI, CAHEX:6HIS immobilized on HIS-affinity probes
substance,measurement,value
Lenacapvir,koff,2.978 ± 0.015 x10^−4 s^−1
same,kon,1.040 ± 0.007 x10^4 M^−1s^−1
